Reference: patent US6248752A, “Azabicyclooctane compositions and methods for enhancing chemotherapy” (priority 1999, dated 2001)
Like-named read-outs stand apart in the source and are kept apart here.

Key:
MRP = target: T1, MRP (Homo sapiens, UniProt P33527); assay: Reversal of MRP-mediated MDR: potentiation of vincristine cytotoxicity toward HL-60/ADR cells; assay type: cell-based
T1 construct: Human promyelocytic leukemia HL-60/ADR cells, which express MRP; endogenous in cells; host or cells: HL-60/ADR human promyelocytic leukemia cells
T1 sequence (P33527 whole entry): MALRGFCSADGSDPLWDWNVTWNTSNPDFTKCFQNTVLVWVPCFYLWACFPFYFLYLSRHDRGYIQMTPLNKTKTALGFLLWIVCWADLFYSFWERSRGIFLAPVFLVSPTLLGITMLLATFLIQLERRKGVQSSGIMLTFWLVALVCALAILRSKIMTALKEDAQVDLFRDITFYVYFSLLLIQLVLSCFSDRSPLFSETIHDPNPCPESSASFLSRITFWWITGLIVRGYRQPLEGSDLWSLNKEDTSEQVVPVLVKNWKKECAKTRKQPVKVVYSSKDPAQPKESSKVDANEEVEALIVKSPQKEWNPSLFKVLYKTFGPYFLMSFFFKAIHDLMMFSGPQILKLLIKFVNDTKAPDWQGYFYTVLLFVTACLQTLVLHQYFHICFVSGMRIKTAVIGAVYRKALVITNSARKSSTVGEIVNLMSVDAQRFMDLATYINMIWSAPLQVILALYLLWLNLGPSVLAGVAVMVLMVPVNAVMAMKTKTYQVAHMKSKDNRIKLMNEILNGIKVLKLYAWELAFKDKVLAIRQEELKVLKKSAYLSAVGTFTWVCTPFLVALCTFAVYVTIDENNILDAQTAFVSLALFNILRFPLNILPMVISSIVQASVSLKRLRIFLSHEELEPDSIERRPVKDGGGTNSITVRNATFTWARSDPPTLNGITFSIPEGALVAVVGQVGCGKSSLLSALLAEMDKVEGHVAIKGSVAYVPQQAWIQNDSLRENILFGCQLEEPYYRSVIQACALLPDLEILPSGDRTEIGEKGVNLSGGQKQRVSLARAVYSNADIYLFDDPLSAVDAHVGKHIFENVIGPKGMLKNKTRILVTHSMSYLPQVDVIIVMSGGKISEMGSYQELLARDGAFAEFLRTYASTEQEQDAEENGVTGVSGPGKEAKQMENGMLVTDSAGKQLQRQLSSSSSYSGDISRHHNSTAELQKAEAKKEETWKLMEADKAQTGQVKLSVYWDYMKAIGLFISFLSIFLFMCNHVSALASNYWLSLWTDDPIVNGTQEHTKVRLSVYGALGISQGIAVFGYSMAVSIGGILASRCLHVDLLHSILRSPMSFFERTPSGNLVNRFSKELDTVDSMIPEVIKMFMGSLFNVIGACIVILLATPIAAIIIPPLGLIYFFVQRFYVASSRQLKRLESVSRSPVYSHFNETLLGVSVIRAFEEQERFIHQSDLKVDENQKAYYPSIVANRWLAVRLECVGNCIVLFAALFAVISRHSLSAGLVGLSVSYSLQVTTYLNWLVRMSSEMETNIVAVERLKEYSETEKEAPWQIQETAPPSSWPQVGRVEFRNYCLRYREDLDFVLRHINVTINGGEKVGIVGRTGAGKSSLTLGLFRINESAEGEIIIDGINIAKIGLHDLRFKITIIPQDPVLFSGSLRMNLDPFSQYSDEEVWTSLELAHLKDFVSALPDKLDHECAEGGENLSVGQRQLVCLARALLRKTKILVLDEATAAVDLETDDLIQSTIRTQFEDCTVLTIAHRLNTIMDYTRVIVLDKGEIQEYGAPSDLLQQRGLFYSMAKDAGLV

[1] = Intrinsic cytotoxicity of the compounds toward drug-sensitive MCF-7 cells (sulforhodamine B binding assay); settings: human, Cytotoxicity (% killed at 10 μg/ml)
[2] = test system: MCF-7 human breast carcinoma cells; settings: mcf-7 cells, 48 h
in vitro = settings: human, mcf-7 cells, Cytotoxicity (% killed at 10 μg/ml)
Pgp = Pgp (Homo sapiens, UniProt P08183)
Chain of Pgp (P08183 whole entry): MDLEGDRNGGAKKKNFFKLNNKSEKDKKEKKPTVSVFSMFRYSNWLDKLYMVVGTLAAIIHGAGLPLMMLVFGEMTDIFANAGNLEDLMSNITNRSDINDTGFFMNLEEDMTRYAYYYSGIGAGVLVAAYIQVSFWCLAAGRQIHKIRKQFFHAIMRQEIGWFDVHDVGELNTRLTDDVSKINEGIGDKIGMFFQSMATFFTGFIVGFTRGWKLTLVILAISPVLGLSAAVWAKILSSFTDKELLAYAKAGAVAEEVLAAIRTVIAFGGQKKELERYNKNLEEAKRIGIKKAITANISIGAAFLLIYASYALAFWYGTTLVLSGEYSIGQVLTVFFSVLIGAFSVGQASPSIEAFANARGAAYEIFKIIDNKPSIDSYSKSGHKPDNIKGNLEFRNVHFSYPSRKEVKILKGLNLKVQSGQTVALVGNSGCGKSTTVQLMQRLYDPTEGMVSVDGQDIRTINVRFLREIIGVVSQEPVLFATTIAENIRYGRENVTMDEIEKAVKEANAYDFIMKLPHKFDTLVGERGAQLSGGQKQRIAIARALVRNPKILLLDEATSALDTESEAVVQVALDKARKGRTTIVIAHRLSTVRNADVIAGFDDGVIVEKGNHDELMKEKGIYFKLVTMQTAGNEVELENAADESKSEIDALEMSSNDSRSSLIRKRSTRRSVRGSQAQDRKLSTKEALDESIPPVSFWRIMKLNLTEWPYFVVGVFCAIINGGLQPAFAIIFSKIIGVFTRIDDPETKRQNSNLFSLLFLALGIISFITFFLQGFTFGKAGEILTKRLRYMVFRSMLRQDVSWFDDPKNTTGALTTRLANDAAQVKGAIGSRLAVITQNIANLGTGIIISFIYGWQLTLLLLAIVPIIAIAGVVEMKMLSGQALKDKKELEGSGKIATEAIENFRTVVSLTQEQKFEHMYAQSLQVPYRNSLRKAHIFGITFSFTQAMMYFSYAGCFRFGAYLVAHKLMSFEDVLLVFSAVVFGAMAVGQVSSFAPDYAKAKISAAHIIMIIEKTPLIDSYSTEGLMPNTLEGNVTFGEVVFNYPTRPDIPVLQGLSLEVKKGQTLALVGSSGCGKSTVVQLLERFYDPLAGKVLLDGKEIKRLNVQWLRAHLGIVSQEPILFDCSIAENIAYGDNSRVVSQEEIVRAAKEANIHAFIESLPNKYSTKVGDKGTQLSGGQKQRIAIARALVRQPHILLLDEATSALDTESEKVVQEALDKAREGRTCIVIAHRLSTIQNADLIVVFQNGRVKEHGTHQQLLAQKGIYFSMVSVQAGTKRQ

[3] = chemosensitizing score on a scale of 0-5 (best activity=5; equal or superior to verapamil = 4, 4.5 or 5), HL-60/ADR cells, 2 nM vincristine, 48 h

Row | SMILES | MRP antagonism (MRP; [3]) | cytotoxicity at 48 h [1] | also measured
1 | COc1cc(C2(O)CC3CCC2N(Cc2ccccc2)C3)cc(OC)c1OC (stereo not drawn) [Compound I-2, 2-benzyl-cis-6-hydroxy-trans-6-(3,4,5-trimethoxyphenyl)-2-azabicyclco[2.2.2]octane] | 3 | 39% | –
2 | COc1cc(C2CC3CCC2N(Cc2ccccc2)C3)cc(OC)c1OC (stereo not shown) [Compound I-3, 2-benzyl-6-(3,4,5-trimethoxyphenyl)-2-azabicyclo[2.2.2]octane] | 4 | 22% | –
3 | COc1cc(C2CC3CCC2NC3)cc(OC)c1OC (stereo not drawn) [Compound I-4, cis-6-(3,4,5-trimethoxyphenyl)-2-azabicyclo[2.2.2]octane] | 2 | – | Cytotoxicity (% killed at 10 μg/ml) [2]: 12%
4 | COc1cc(C2CC3CCC2NC3)cc(OC)c1OC (stereo not drawn) [Compound I-5, trans-6-(3,4,5-trimethoxyphenyl)-2-azabicyclo[2.2.2]octane] | 4 | – | Cytotoxicity (% killed at 10 μg/ml) [2]: 0%
5 | Oc1ccc(C2(O)CC3CCC2N(Cc2ccccc2)C3)cc1O (stereo not drawn) [Compound I-6, 2-benzyl-cis-6-hydroxy-trans-6-(3,4-dihydroxyphenyl)-2-azabicyclo[2.2. 2]octane] | 1.5 | 21% | –
6 | CCN1CC2CCC1C(Nc1ccccc1)C2 (stereo not shown) [Compound I-7, 2-ethyl-6-anilino-2-azabicyclo[2.2.2]octane] | 1 | – | cytotoxicity at 48 h (in vitro): 26%
7 | OC1CC2CCC1N(Cc1ccccc1)C2 (stereo not drawn) [Compound I-9, 2-benzyl-6-trans-hydroxy-2-azabicyclo[2.2.2]octane] | 0 | – | cytotoxicity at 48 h (in vitro): 0%
8 | OC1(c2ccc(OCc3ccccc3)c(OCc3ccccc3)c2)CC2CCC1N(Cc1ccccc1)C2 (stereo not shown) [Compound I-10, 2-benzyl-6-(3,4-dibenzyloxyphenyl)-6-hydroxy-2-azabicyclo[2.2.2]octane] | 0 | 0% | –
9 | CN1CC2CCC1C(=O)C2=C(c1ccccc1)c1ccccc1 (stereo not shown) [Compound I-11, 5-diphenylmethylidene-2-methyl-2-azabicyclo[2.2.2]octan-6-one] | – | 8% | –
10 | NNC(=O)OC1CC2CCC(C1)N2C(=O)Oc1ccc(Cl)cc1 (stereo not shown) [II-1, 3-hydrazinocarbonyloxy-8-(4-chlorophenoxycarbonyl)-8-azabicyclo[3.2. 1]octane] | – | – | MRP antagonism (MRP): 2; Pgp antagonism (Pgp): 3
